Assay results taken from patent US4393178A, “Fast crystallizing polyester compositions” (priority 1979, dated 1983).
Where a name gives a salt, the structure may show the parent alone. Read-outs that look alike come from different tables or passages of the source.

Key:
[1] = Crystallinity of injection moulded articles; format: physicochemical; settings: 0.5% salt, mould 120 °C, cycling time 12 seconds, based on heat of fusion 24 Cal/g
Experimental: The extruded product of Example 6 has been dried (120° C.) in a ventilated oven. The obtained pellets have been moulded by injection in a Buhler Rover 63 machine.
Different cycling times have been experimented.

[2] = Solubility parameter δ of the acid
[3] = cited from earlier work
[4] = Half-crystallisation time (t1/2), isothermal DSC; format: physicochemical
Experimental: A DSC 2 Perkin Elmer scanning calorimeter was used.
10 mg of the sample of polymer material are placed in a capsule and introduced into the apparatus, wherein the sample is quickly heated to a temperature of 290° C. at which it is maintained during 1 minute.
The molten polymer material is then very quickly cooled by means of liquid air (at a rate of 320° C. per minute) until the crystallisation temperature is reached.
The crystallisation isotherm is registered on a temperature-time graph and the peak appearing on the registered isotherm is taken as the half-crystallisation time (t1/2).

[5] = ΔT = Tc(cooling) - Tn(heating), DSC; format: physicochemical
Experimental: An alternative method for assessing the effectiveness of nucleation of an additive is to compare the difference between the value of the crystallisation peak on cooling (Tc) with that on heating (Tn) for a composition containing an ionisable salt. The value obtained from this comparison, Tc(cooling) -Tn(heating) is termed ΔT. […] Samples of polyester together with 1% of the salt under test were mixed in a 2-roll mill at 270° C. for 5 minutes. The sample produced was pressed into 2 mm thick sheets at 270° C. for 3 minutes and then cooled to room temperature. 10 mg of the sample was placed in a capsule and rapidly heated to 290° C. After maintaining this temperature for 1 minute the capsule was quenched in water. The crystallisation peak temperatures on heating (Tn) and cooling (Tc) were determined using heating and cooling rates of 10° C./minute on a Perkin Elmer DSC 2 machine.

[6] = Degradation constant K (melt degradation performance); format: physicochemical; parameters: unit not given here
Experimental: The melt degradation performance is a measure of the extent of degradation under molten conditions. A convenient method of quantifying the performance is by measuring the "K value". A method for determining this value in the molten state using an Instron Capillary rheometer is given in a paper by J. Devaux et al in Makromol.
(§1) This method is carried out on samples prepared by reacting the salt with the polyester on a 2 roll-mill at a temperature above the melting point of the polyester for 5 minutes and then pressing the product obtained into a 2 mm thick sheet using the same temperature for 3 minutes before cooling to room temperature. The method is described for polyethylene terephthalate but can be readily adapted for other polyesters.
For polyethylene terephthalate the K value in the presence of salt should be less than 60.

[7] = Crystallisation peak temperature on heating (Tn), DSC; format: physicochemical; settings: for Tn(composition)-Tn(polyester): PET I.V. 0.73 + 1% salt, 2-roll mill 300 °C 2 min, 10 °C/minute; for Tn (16° C./min): 1% salt deposited from solution on PET
Experimental: In one such DSC technique the crystallisation peak temperature difference, Tn(composition)--Tn(polyester) is determined by measuring the crystallisation peak temperatures on heating for the composition in comparison with the polyester of the composition not containing the ionisable salt. The detailed procedure is as follows. Compositions were prepared from the polyester and the additive by mixing on a 2-roll mill at 300° C. for 2 minutes. The sample was taken from the mill and pressed into a film in a compression moulding machine. 10 mg samples of the composition were placed in a capsule, rapidly heated to 290° C. and maintained at that temperature for 1 minute. The capsule was then dropped into water to quench the polymer and prevent crystallisation. The sample was then placed in a Perkin Elmer DSC 2 machine and heated at a rate of 10° C./minute until reaching a temperature of 290° C. The crystallisation peak temperature observed on this heating cycle is recorded and compared with the value for the polyester not containing the additive.
Samples of polyethylene terephthalate (I.V. =0.73) containing 1% of the salts listed in Table 2 were prepared by compounding at 300° C. on a 2-roll mill for 2 minutes. The samples were evaluated to determine Tn(composition-Tn(polyester), the total number of end groups, the number of carboxylate groups and the number of hydroxyl and carboxyl groups.
The salts listed in Table 3 were deposited from solution on the surface of polyethylene terephthalate chip to give a concentration of 1% by weight of salt. The product was dried under vcuum at 96° C. for 3 hours. The compositions were pressed into film using a temperature of 280° C. for 1 minute. The DSC measurements were made after quenching from the melt to prevent crystallisation and using a heating rate of 16° C./minute.
1% by weight of the sodium salt of saccharin was deposited on the surface of granules of a polyethylene terephthalate homopolymer of I.V. =0.73 by evaporating an aqueous solution of the salt from the granules by drying at 96° C. under vacuum for 3 hours. The granules obtained were compression moulded into film by pressing at 280° C. for 60 second. The film was used for measurements of Tn at a heating rate of 16° C./minute.
The effect of the salts listed in Table 4 was determined by taking granules of a polymer of poly(ethylene terephthalate) homopolymer having an intrinsic viscosity of 0.73 and evaporating a solution of the salt in methanol or water from the surface of the granules by drying at 96° C. under vacuum for 3 hours. The proportions of polymer and solution used were such as to give a concentration of 1% of salt by weight of the final dry composition. The granules obtained were compression-moulded into film at 280° C. for various periods of time. The film was used for measurement of Tn as hereinbefore described.
Two samples of polyethylene terephthalate chip (I.V. =0.73) were coated from solution with 1% of the sodium salt of o-hydroxybenzoic acid and the disodium salt of the same acid respectively. After drying for 3 hours in a vacuum oven at 95° C. films were prepared by pressing the products for 1 minute at 280° C.

End group determination = format: physicochemical
Experimental: The numbers of hydroxyl and carboxyl groups were also determined according to the procedure given in this paper.
[…] The samples were evaluated to determine Tn(composition-Tn(polyester), the total number of end groups, the number of carboxylate groups and the number of hydroxyl and carboxyl groups.

[8] = Degradation constant K (melt degradation performance); format: physicochemical; parameters: unit not given here; settings: 1% salt deposited from solution on PET (Examples 13-15)
[9] = Crystallisation peak temperature on heating (Tn), DSC, block copolymer; format: physicochemical
Experimental: A block copolymer containing 5% by weight of polyethylene glycol units of molecular weight 1540 in chip form was blended with a solution of the sodium salt of o-chlorobenzoic acid to give a salt concentration of 1% by weight of the polyester. Samples were prepared for DSC analysis using the procedure of Example 15.
(§2) The polymer used in Example 16 and 1% of the disodium salt of o-hydroxy benzoic acid were compounded on a 2-roll mill at 270° C. for 2 minutes. […] (measured at a heating rate of 10° C./minute).

[10] = Degradation constant K, block copolymer; format: physicochemical; settings: 1% salt, 2-roll mill 270 °C 2 minutes, compared with polyester itself
Experimental: The melt degradation performance is a measure of the extent of degradation under molten conditions. A convenient method of quantifying the performance is by measuring the "K value". A method for determining this value in the molten state using an Instron Capillary rheometer is given in a paper by J. Devaux et al in Makromol. Chem. 179, 2201-2209 (1978).
as §1, §2

[11] = End group determination, block copolymer; format: physicochemical; settings: 1% salt, 2-roll mill 270 °C 2 minutes
Experimental: The total number of end groups in the polyester were found by determining the intrinsic viscosity of the polyester and using the correlation between I.V. and number of end groups given in Transactions of the Faraday Societ 1961, Volume 57, pages 150 to 159. The numbers of hydroxyl and carboxyl groups were also determined according to the procedure given in this paper.
as §2

[12] = PET I.V. 0.73 + 1% salt, 2-roll mill 300 °C 2 min
[13] = 110 °C, 1% salt in PET, 2-roll mill 270 °C 5 min, after melting 1 minute at 290 °C
[14] = 120 °C, 1% salt in PET, 2-roll mill 270 °C 5 min, after melting 1 minute at 290 °C
[15] = 1% salt in PET, 2-roll mill 270 °C 5 min, 10 °C/minute
[16] = 1% salt in PET, 2-roll mill 270 °C 5 min, molten state 290 °C
[17] = pressed 280 °C 1 minute, heating rate 16 °C/minute
[18] = 1% salt deposited from solution on PET chip, pressed 280 °C 1 minute

O=C([O-])c1ccc([N+](=O)[O-])cc1Cl.[Na+]
crystallinity [1]: 40% | δ × pKH.sbsb.2O [2]: 26 | pKH.sbsb.2O ([3]; water): 2 | t1/2 (sec) 110° C. [4]: 90 s | t1/2 (sec) 120° C. [4]: 48 s | ΔT [5]: 103 | K [6]: 39

O=C(O)c1ccc(Cl)cc1Cl [2,4-dichlorobenzoic acid]
δ × pKH.sbsb.2O ([2]; product for the acid): 34 | pKH.sbsb.2O ([3]; acid from which the salt is derived, in water): 2.8 | Tn(composition)-Tn(polyester) [7]: 23 °C | % of carboxylate end group (End group determination; [12]): 16.7% | End Groups --COOH (End group determination; [12]): 67 moles × 10^-6 g^-1 | End Groups --OH (End group determination; [12]): 55 moles × 10^-6 g^-1 | End Groups Carboxylate (End group determination; [12]): 32 moles × 10^-6 g^-1 | End Groups Total from solution I.V. (End group determination; [12]): 192 moles × 10^-6 g^-1 | t1/2 (sec) 110° C. [4, 13]: 60 s | t1/2 (sec) 120° C. [4, 14]: 35 s | ΔT [5, 15]: 109 °C | K [6, 16]: 65

O=C(O)c1ccco1 [Sodium salt of 2-furoic acid]
Tn (16° C./min) [7, 17]: 127 °C | End Groups --COOH (End group determination; [18]): 29 moles × 10^-6 g^-1 | End Groups --OH (End group determination; [18]): 62 moles × 10^-6 g^-1 | End Groups Total from solution I.V. (End group determination; [18]): 121 moles × 10^-6 g^-1 | K [8]: 65

O=C(O)c1cccs1 [Sodium salt of 2-thiophencarboxylic acid]
Tn(comp.)-Tn(PET) (16° C./min) ([7]; 1% salt deposited from solution on PET chip, pressed 280 °C 1 minute, heating rate 16 °C/minute): 29 °C | Tn (16° C./min) [7, 17]: 112 °C | End Groups --COOH (End group determination; [18]): 24 moles × 10^-6 g^-1 | End Groups --OH (End group determination; [18]): 59 moles × 10^-6 g^-1 | End Groups Total from solution I.V. (End group determination; [18]): 145 moles × 10^-6 g^-1 | K [8]: 15

O=C(O)c1ccccc1O [ortho-ONa-benzoic acid]
Tn ([9]; 1% salt, 2-roll mill 270 °C 2 minutes, block copolymer, heating rate 10 °C/minute): 100 °C | K value [10]: less than that for the polyester itself | total number of end groups determined from the intrinsic viscosity [11]: 137 | Tn (16° C./min) ([7]; pressed 280 °C 1 minute, heating rate 16 °C/minute, listed as disodium salt of o-hydroxy benzoic acid): 108 °C | t1/2 (sec) 110° C. [4]: 70 s | t1/2 (sec) 120° C. [4]: 49 s | ΔT [5, 15]: 110 °C | K ([8]; listed as disodium salt of o-hydroxy benzoic acid): 24 | K [6, 16]: 24

O=C(O)c1ccccc1Cl [ortho-chlorobenzoic acid]
Tn ([9]; 1% salt from solution on block copolymer, heating rate 16 °C/minute): 102 °C | δ × pKH.sbsb.2O ([2]; product for the acid): 37 | pKH.sbsb.2O ([3]; water): 3 | Tn(composition)-Tn(polyester) [7]: 26 °C | % of carboxylate end group (End group determination; [12]): 22% | End Groups --COOH (End group determination; [12]): 45 moles × 10^-6 g^-1 | End Groups --OH (End group determination; [12]): 55 moles × 10^-6 g^-1 | End Groups Carboxylate (End group determination; [12]): 37 moles × 10^-6 g^-1 | End Groups Total from solution I.V. (End group determination; [12]): 167 moles × 10^-6 g^-1 | t1/2 (sec) 110° C. [4, 13]: 65 s | t1/2 (sec) 120° C. [4, 14]: 36 s | ΔT [5, 15]: 108 °C | K [6, 16]: 32

O=C(O)c1ccccc1O [ortho-hydroxy benzoic acid]
Tn (16° C./min) ([7]; pressed 280 °C 1 minute, heating rate 16 °C/minute, listed as sodium salt of o-hydroxybenzoic acid): 114 °C | t1/2 (sec) 110° C. [4]: 80 s | t1/2 (sec) 120° C. [4]: 40 s | ΔT [5, 15]: 105 °C | K ([8]; listed as sodium salt of o-hydroxybenzoic acid): 26 | K [6, 16]: 26

O=C1NS(=O)(=O)c2ccccc21 [sodium salt of saccharin]
Tn (16° C./min) [7, 17]: 112 °C | K [8]: 9
